How the values were obtained:
KKA^y mice [1] = experiment: Hypoglycemic and hypolipidemic actions in mice; format: in vivo; conditions: Mus musculus, po, 96 h, four days; for inhibition in vivo at 0.001 %: 0.001% in powdery diet; for inhibition in vivo at 0.005 %: 0.005% in powdery diet
Source text: Hypoglycemic and Hypolipidemic Actions in Mice
Test compounds were mixed in a powdery diet (CE-2, Japan Clea) at the concentration of 0.01% (compounds of Examples 12, 30, 89, 186), 0.005% (compounds of Examples 7, 80, 82, 181, 182, 184, 256, 262, 283), 0.001% (compounds of Examples 9, 104, 110, 155, 156, 160, 167, 169, 172, 174, 176, 189), or 0.0003% (compounds of Examples 38, 40, 44), and freely given to KKA^y mice (9 to 12 weeks old, 5 mice in a group), a model of obese and type 2 diabetes mellitus, for four days. During this period, water was given freely. Blood was sampled from orbital venous plexus, and glucose and triglyceride levels in plasma separated from blood were determined enzymatically using L type Wako Glu2 (Wako Pure Chemical Industries, Ltd.) or L type Wako TG•H (Wako Pure Chemical Industries, Ltd.), respectively.
In the Table, the value of each treatment group is represented as percent reduction compared with the non-treatment group.

PPARγ-RXRα heterodimer = target: T1, PPARγ-RXRα heterodimer (Homo sapiens, UniProt P37231); experiment: PPARγ-RXRα heterodimer ligand activity (luciferase reporter, PPARγ:RXRα:4ERPP/CHO-K1 cells); format: cell-based; conditions: 48 hours, concentration for 50% of the maximum fold induction
T1 construct: expressed in transfected cells; host or cells: CHO-K1
T1 sequence (P37231 1-477 isoform P37231-2): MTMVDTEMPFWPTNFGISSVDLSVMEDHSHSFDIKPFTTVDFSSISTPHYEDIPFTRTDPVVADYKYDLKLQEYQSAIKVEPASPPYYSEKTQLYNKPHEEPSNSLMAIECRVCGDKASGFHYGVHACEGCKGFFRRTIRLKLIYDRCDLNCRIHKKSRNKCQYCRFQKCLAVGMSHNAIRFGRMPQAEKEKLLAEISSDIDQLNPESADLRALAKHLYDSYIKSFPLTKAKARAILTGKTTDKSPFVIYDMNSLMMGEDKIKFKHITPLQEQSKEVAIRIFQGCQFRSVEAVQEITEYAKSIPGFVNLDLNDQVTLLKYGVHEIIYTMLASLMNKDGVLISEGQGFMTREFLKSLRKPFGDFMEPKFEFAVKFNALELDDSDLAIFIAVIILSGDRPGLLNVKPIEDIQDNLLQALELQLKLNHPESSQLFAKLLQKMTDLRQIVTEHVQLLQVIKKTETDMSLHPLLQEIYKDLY
T1 sequence (P19793 1-462 partner): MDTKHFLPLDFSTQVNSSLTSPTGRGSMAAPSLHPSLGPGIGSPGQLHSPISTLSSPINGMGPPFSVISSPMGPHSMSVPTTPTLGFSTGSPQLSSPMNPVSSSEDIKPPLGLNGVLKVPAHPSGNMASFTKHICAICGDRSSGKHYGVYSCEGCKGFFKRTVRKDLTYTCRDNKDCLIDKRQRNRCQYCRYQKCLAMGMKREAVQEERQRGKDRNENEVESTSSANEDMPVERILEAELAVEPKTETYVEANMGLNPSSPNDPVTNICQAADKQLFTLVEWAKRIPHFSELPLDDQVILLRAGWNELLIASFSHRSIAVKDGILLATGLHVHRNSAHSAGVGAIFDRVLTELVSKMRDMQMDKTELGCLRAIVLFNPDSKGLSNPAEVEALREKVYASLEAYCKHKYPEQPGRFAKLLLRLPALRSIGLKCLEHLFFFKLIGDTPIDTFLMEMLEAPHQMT
Protocol: (PPARγ-RXRα Heterodimer Ligand Activity)
A PPARγ:RXRα:4ERPP/CHO-K1 cells obtained in Reference Example 5 described later were cultured in HAM F12 medium (produced by NISSUI SEIYAKU) containing 10% Fetal bovine serum (produced by Life Technologies, Inc., USA) and then inoculated to a 96-well white plate (produced by Corning Costar Corporation, USA) at the density of 2×10^4 cells/well, and cultured in a CO2 gas incubator at 37° C. overnight.
After washing the 96 well white plate with PBS (Phosphate-buffered saline), 90 μl of HAM F12 medium containing 0.1% fatty acid-free bovine serum albumin (BSA) and 10 μl of test compound were added, which was cultured in a CO2 gas incubator at 37° C. for 48 hours. After removing the medium, 40 μl of PIKKAGENE 7.5 (produced by Wako Pure Chemical Industries, Ltd.) was added. After stirring, the luciferase activity was determined using Lumistar (produced by BMG Labtechnologies GmbH, Germany).
A fold induction was calculated based on the luciferase activity of each test compound by taking the luciferase activity in the non-treatment group as 1. The values of the test compound concentration and the fold induction were analyzed using PRISM 2.01 (produced by GraphPad Software Inc. USA) to calculate the EC50 values, the effective concentration of a test compound for 50% of the maximum fold induction.
(Introduction of Human PPARγ- and RXRα-Expressing Plasmid and Reporter Plasmid into CHO-K1 Cell and Establishment of Expressed Cell)
After a CHO-K1 cell cultured in a 750 ml tissue culture flask (produced by Corning Costar Corporation, USA) containing HAM F12 medium (produced by NISSUI SEIYAKU) supplemented with 10% Fetal Bovine Serum (produced by Life Technologies, Inc., USA) was scraped by treating with 0.5 g/L trypsin-0.2 g/L EDTA (ethylenediaminetetraacetic acid) (produced by Life Technologies, Inc., USA), the cell was washed with PBS (phosphate-buffered saline) (produced by Life Technologies, Inc., USA), centrifuged (1000 rpm, 5 minutes), and then suspended in PBS. Subsequently, a DNA was introduced into the cell under the condition shown below using GENE PULSER (produced by Bio-Rad Laboratories, USA).
Namely, to a cuvette having a 0.4 cm gap, added were 8×10^6 cells and 10 μg of plasmid pVgRXR2-hPPAR γ obtained in Reference Example 3 and 10 μg of reporter plasmid pGL3-4ERPP-TK neo obtained in Reference Example 4, which was subjected to electroporation at the voltage of 0.25 kV under the capacitance of 960 μF. Subsequently, the cell was transferred into a HAM F12 medium containing 10% Fetal Bovine Serum and cultured for 24 hours and then the cell was scraped again and centrifuged, and then suspended in HAM F12 medium containing 10% Fetal Bovine Serum supplemented with 500 μg/ml of GENETICIN (produced by Life Technologies, Inc., USA) and 250 μg/ml of ZEOCIN (produced by Invitrogen, USA) and diluted to the density of 10^4 cells/ml upon inoculation to a 96-well plate (produced by Corning Costar Corporation, USA), which was cultured in a CO2 gas incubator at 37° C., whereby obtaining a GENETICIN- and ZEOCIN-resistant transformant.
Subsequently, after the transformant cell line thus obtained was cultured in a 24-well plate (produced by Corning Costar Corporation, USA), selected was a cell line in which the luciferase was expressed and induced, i.e., PPARγ:RXRα:4ERPP/CHO-K1 cell by addition of 10 μM pioglitazone hydrochloride.

KKA^y mice [2] = experiment: Total cholesterol lowering action and plasma anti-arteriosclerosis index-enhancing action in mice; format: in vivo; conditions: Mus musculus, po, 96 h, four days, non-treatment group taken as 100%; for change in vivo at 0.001 % / inhibition in vivo at 0.001 %: 0.001% in powdery diet
Source text: Total Cholesterol Lowering Action and Plasma Anti-Arteriosclerosis Index-Enhancing Action in Mice
Test compounds were mixed in a powdery diet (CE-2, Japan Clea) at the concentration of 0.01% (compounds of Examples 12, 30, 89), 0.005% (compounds of Examples 38, 40, 44, 181, 184, 262, 283), or 0.001% (compounds of Examples 9, 156, 167, 172, 174, 176, 189), and freely given to KKA^y mice (9 to 12 weeks old, 5 mice per group), a model of obese and type 2 diabetes mellitus, for four days. During this period, water was given freely. Blood was sampled from orbital venous plexus and plasma was separated. Total cholesterol levels were determined by using L type Wako Cholesterol (Wako Pure Chemical Industries, Ltd.). Precipitation reagent for apoB containing lipoprotein was added to a part of the plasma to precipitate non-HDL lipoprotein, and cholesterol (HDL cholesterol) in the resulting supernatant was determined. The plasma anti-arteriosclerosis index [(HDL cholesterol/total cholesterol)×100] was calculated by using these cholesterol levels.
In the Table, “Total cholesterol lowering action (%)” represents the percent reduction (%) of total cholesterol level in the treatment group, when the total cholesterol level in the non-treatment group is taken as 100%. “Plasma anti-arteriosclerosis index-enhancing action (%)” represents the percent increase (%) of plasma anti-arteriosclerosis index in the treatment group, when the plasma anti-arteriosclerosis index in the non-treatment group is taken as 100%.

[3] = percent reduction of plasma glucose compared with the non-treatment group, read-out: Hypoglycemic action (%)
[4] = percent reduction of plasma triglyceride compared with the non-treatment group, read-out: Hypolipidemic action (%)
[5] = percent increase of [(HDL cholesterol/total cholesterol)×100], read-out: Plasma anti-arteriosclerosis index-enchancing action (%)
[6] = percent reduction of plasma total cholesterol

Row | SMILES | inhibition in vivo at 0.001 % (KKA^y mice [1]; [3]) | inhibition in vivo at 0.001 % (KKA^y mice [1]; [4]) | EC50 (PPARγ-RXRα heterodimer) | inhibition in vivo at 0.005 % (KKA^y mice [1]; [3]) | inhibition in vivo at 0.005 % (KKA^y mice [1]; [4]) | melting point | further results
1 | CCOC(=O)CCc1cn(Cc2ccc(OCc3nc(-c4ccco4)oc3C)cc2)nc1-c1ccc(F)cc1 [Example 104, ethyl 3-[3-(4-fluorophenyl)-1-[4-[2-(2-furyl)-5-methyl-4-oxazolylmethoxy]benzyl]-1H-pyrazol-4-yl]propionate] | 43% | 42% | 2 nM | – | – | – | –
2 | CCOc1nn(Cc2ccc(OCc3cn(-c4ccccn4)nc3C)cc2)cc1CCC(=O)O [Example 256, 3-[3-ethoxy-1-[4-(3-methyl-1-(2-pyridyl)-1H-pyrazol-4-ylmethoxy]benzyl]-1H-pyrazol-4-yl]propionic acid] | – | – | 53 nM | 57% | 16% | 126 to 127 °C | –
3 | Cc1oc(-c2ccccc2)nc1COc1ccc(Cn2cc(CCC(=O)O)c(-c3ccccc3)c2)cc1 [Example 7, 3-[1-[4-(5-methyl-2-phenyl-4-oxazolylmethoxy)benzyl]-4-phenyl-3-pyrrolyl]propionic acid] | – | – | 3.8 nM | 54% | 60% | 124 to 125 °C | –
4 | CCCc1nn(Cc2ccc(OCc3nc(-c4ccccc4)oc3C)cc2)cc1CCC(=O)O [Example 110, 3-[1-[4-(5-methyl-2-phenyl-4-oxazolylmethoxy)benzyl]-3-propyl-1H-pyrazol-4-yl]propionic acid] | 50% | 70% | 3.5 nM | – | – | 153 to 154 °C | –
5 | Cc1oc(-c2ccccc2)nc1COc1ccc(Cn2cc(CCC(=O)O)c(-c3ccc(F)cc3)n2)cc1 [Example 100, 3-[3-(4-fluorophenyl)-1-[4-(5-methyl-2-phenyl-4-oxazolylmethoxy)benzyl]-1H-pyrazol-4-yl]propionic acid] | – | – | 1.8 nM | – | – | 139 to 140 °C | –
6 | CCOc1nn(Cc2ccc(OCc3nc(-c4ccccc4)oc3C)nc2)cc1CCC(=O)O [Example 184, 3-[3-ethoxy-1-[2-(5-methyl-2-phenyl-4-oxazolylmethoxy)-5-pyridylmethyl]-1H-pyrazol-4-yl]propionic acid] | – | – | – | 56% | 82% | – | change in vivo at 0.005 % (KKA^y mice [2]; 0.005% in powdery diet, percent increase of [(HDL cholesterol/total cholesterol)×100], read-out: Plasma anti-arteriosclerosis index-enchancing action (%)): 17%; inhibition in vivo at 0.005 % (KKA^y mice [2]; 0.005% in powdery diet, percent reduction of plasma total cholesterol): 27%
7 | Cc1oc(-c2ccco2)nc1COc1ccc(Cn2cc(CCC(=O)O)c(-c3ccccc3)c2)cc1 [Example 8, 3-[1-[4-[2-(2-furyl)-5-methyl-4-oxazolylmethoxy]benzyl]-4-phenyl-3-pyrrolyl]propionic acid] | – | – | 2.7 nM | – | – | 86 to 87 °C | –
8 | CCOc1nn(Cc2ccc(OCc3nc(-c4ccccc4)oc3C)c(OC)c2)cc1CCC(=O)O [Example 172, 3-[3-ethoxy-1-[3-methoxy-4-(5-methyl-2-phenyl-4-oxazolylmethoxy)benzyl]-1H-pyrazol-4-yl]propionic acid] | 42% | 62% | – | – | – | – | change in vivo at 0.001 % (KKA^y mice [2]; [5]): 11%; inhibition in vivo at 0.001 % (KKA^y mice [2]; [6]): 20%
9 | CCOc1nn(Cc2ccc(OCc3nc(-c4ccco4)oc3C)cc2)cc1CCC(=O)O [Example 167, 3-[3-ethoxy-1-[4-[2-(2-furyl)-5-methyl-4-oxazolylmethoxy]benzyl]-1H-pyrazol-4-yl]propionic acid] | 48% | 60% | – | – | – | – | change in vivo at 0.001 % (KKA^y mice [2]; [5]): 9%; inhibition in vivo at 0.001 % (KKA^y mice [2]; [6]): 19%

— patent US7179823B1, “5-membered n-heterocyclic compounds with hypoglycemic and hypolipidemic activity” (Takeda Pharmaceutical Company Limited, priority 1999, dated 2007)
